Laboratory results from publication PMC3292553, “Flavonoid Glycosides Isolated from Unique Legume Plant Extracts as Novel Inhibitors of Xanthine Oxidase” (PLoS ONE, 2012).

Target: T1, Xanthine oxidase from bovine milk (Bos taurus, UniProt P80457)
T1 construct: Xanthine oxidase from bovine milk and allopurinol were purchased from Sigma-Aldrich; purchased Sigma-Aldrich (St Louis MO, USA); host or cells: bovine milk (natural source)
Experiment: Assessment of XO activity (formation of uric acid from xanthine, 295 nm)
Assay type: biochemical
Conditions: pure compounds; for Inhibition type: kinetic analysis; for Ki: kinetic analysis (Lineweaver-Burk, Grafit 6); for IC50: XO inhibition
Protocol: XO activity was determined by measuring the formation of uric acid from xanthine within a set time. Changes in the levels of uric acid produced through the presence of the test samples allow the potency of inhibitors to be assessed. Initially the effect of the polyphenolic fractions and compounds on the inhibition of enzymatic activity was assessed at substrate concentration where maximum velocity was obtained. All initial reaction rates were in the linear scale and were measured over the first 4 min of the reaction. Each assay was performed in triplicates and the optical density was measured using a Hitachi U-1500 Spectrophotometer (San Jose, USA). […] The reaction was initiated through the addition of 43 mU unit of XO diluted in H2O. […] Control samples were prepared identically to the test samples without the addition of the specimen.
The measured absorbance was corrected for the contribution of the tested fractions and the pure polyphenolic compounds.
Statistical computations were carried out using SPSS 13.0 software. For statistical analysis, one-way ANOVA was applied followed by Dunnett's test for multiple pair-wise comparisons. Differences were considered significant at p<0.05. The steady state kinetic parameters (Km and Vmax) were determined (under standard assays conditions) by analyzing formation of uric acid from xanthine under initial rate conditions using the Lineweaver-Burk linearization of the Micaelis-Menten equation. The Ki values and the apparent kinetic parameters Km and Vmax were analyzed with the statistic package Grafit 6 (Erithacus Software, Ltd., Horley, UK).

T1 sequence (P80457 whole entry): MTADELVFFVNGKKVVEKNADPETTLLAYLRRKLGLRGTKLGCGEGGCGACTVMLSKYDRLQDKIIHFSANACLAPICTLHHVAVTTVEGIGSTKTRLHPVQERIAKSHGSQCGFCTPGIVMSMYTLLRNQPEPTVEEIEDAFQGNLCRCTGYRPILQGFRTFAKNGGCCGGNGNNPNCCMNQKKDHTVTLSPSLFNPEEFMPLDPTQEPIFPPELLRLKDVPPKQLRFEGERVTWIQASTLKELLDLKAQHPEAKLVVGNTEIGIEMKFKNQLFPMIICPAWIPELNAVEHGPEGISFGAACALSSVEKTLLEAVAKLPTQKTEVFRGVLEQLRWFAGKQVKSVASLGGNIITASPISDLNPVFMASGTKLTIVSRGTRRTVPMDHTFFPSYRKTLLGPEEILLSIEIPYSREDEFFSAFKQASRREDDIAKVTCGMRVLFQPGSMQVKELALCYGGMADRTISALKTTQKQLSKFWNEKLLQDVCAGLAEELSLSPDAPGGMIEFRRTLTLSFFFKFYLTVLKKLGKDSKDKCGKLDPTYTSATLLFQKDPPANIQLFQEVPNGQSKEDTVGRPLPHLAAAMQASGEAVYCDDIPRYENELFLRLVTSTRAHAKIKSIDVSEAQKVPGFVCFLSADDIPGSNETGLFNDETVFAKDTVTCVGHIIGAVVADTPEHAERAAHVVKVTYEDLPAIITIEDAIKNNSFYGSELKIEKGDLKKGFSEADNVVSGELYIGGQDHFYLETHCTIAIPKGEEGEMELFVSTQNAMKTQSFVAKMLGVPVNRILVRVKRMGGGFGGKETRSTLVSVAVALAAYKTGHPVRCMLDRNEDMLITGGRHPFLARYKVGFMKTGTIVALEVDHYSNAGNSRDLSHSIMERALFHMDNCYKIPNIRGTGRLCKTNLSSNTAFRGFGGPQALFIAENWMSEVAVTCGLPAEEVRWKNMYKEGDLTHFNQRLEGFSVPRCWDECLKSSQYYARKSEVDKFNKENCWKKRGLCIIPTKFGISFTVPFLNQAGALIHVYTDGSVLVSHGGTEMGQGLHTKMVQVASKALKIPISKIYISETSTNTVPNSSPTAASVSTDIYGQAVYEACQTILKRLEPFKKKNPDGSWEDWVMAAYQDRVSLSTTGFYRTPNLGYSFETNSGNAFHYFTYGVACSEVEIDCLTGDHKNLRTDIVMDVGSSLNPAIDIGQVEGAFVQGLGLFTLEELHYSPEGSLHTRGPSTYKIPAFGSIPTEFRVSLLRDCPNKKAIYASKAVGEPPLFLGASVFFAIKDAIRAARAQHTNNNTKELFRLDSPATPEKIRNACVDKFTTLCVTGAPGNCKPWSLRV

Row | SMILES | Inhibition type | Ki [µM] | IC50 [µM]
1 | CC1=CC(=O)CC(C)(C)C1(O)C=CC(C)OC1OC(CO)C(O)C(O)C1O [Compound 3, (6S,9R)-Roseoside] | Non competitive | 767 | –
2 | Oc1ncnc2[nH]ncc12 [Allopurinol, 4-hydroxypyrazolo (3,4-d) pyrimidine, reference compound] | Competitive | – | –
3 | CC1OC(Oc2cc(O)c3c(=O)c(OC4OC(CO)C(O)C(O)C4OC4OC(C)C(O)C(O)C4O)c(-c4ccc(O)c(O)c4)oc3c2)C(O)C(O)C1O [Compound 1, Quercetin 3-O-[α-L-rhamnopyranosyl(1→2)-β-D-galactopyranosyl]-7-O-α-L-rhamnopyranoside] | Non competitive | 115 | –
4 | CC1OC(Oc2cc(O)c3c(=O)c(OC4OC(CO)C(O)C(O)C4OC4OC(C)C(O)C(O)C4O)c(-c4ccc(O)c(O)c4)oc3c2)C(O)C(O)C1O [Compound 2, Quercetin 3-O[α-L-rhamnopyranosyl(1→2)-β-D-glucopyranosyl]-7-O-α-L-rhamnopyranoside] | – | 186 | –

Now from value to compound:

Row | Inhibition type | Ki [µM] | IC50 [µM] | SMILES
5 | Non competitive | 177 | 70.6 | CC1OC(Oc2cc(O)c3c(=O)c(OC4OC(CO)C(O)C(O)C4O)c(-c4ccc(O)cc4)oc3c2)C(O)C(O)C1O [Compound 10, Kaempferol 3-O-β-D-glucopyranosyl-7-O-α-L-rhamnopyranoside]
6 | – | 50 | – | CC1OC(Oc2cc(O)c3c(=O)c(OC4OC(CO)C(O)C(O)C4OC4OC(C)C(O)C(O)C4O)c(-c4ccc(O)cc4)oc3c2)C(O)C(O)C1O [Compound 4b, Kaempferol 3-O-[α-L-rhamnopyranosyl(1→2)-β-D-galactopyranosyl]-7-O-α-L-rhamnopyranoside]
7 | Non competitive | 345 | – | CC1OC(Oc2cc(O)c3c(=O)c(OC4OC(CO)C(O)C(O)C4O)c(-c4ccc(O)cc4)oc3c2)C(O)C(O)C1O [Compound 5, Kaempferol 3-O-β-D-galactopyranosyl-7-O-α-L-rhamnopyranoside]
8 | Non competitive | 651 | – | CC1OC(Oc2cc(O)c3c(=O)c(OC4OC(CO)C(O)C(O)C4OC4OC(C)C(O)C(O)C4O)c(-c4ccc(O)cc4)oc3c2)C(O)C(O)C1O [Compound 4a, Kaempferol 3-O-[α-L-rhamnopyranosyl(1→2)-β-D-glucopyranosyl]-7-O-α-L-rhamnopyranoside]
9 | Non competitive | 210 | 112 | CC1OC(Oc2cc(O)c3c(=O)c(OC4OCC(O)C(O)C4O)c(-c4ccc(O)cc4)oc3c2)C(O)C(O)C1O [Compound 9, Kaempferol 3-O-α-L-arabinopyranosyl-7-O-α-L-rhamnopyranoside]
